The numbers were not newly measured in patent US7094735B2, “Herbicide microemulsion-forming-concentrates, microemulsions, and methods” (priority 2001, dated 2006), which cites them from elsewhere.

The conditions of the series: Table 1, exemplary pKa values of acidic herbicides.

Take `O=C(O)CCCOc1ccc(Cl)cc1Cl` [2,4-DB]: the pKas was 4.8.

`O=C(O)c1cc(Oc2ccc(C(F)(F)F)cc2Cl)ccc1[N+](=O)[O-]` [Acifluorfen]: the pKas is listed as 3.86. For `N#Cc1cc(Br)c(O)c(Br)c1` [Bromoxynil], the pKas was 4.06. On to `COc1c(Cl)ccc(Cl)c1C(=O)O` [Dicamba, 3,6-dichloro-O-anisic acid], for which the pKas was 1.87. In the case of `CC(Oc1ccc(Cl)cc1Cl)C(=O)O` (stereo not shown) [Dichlorprop], the pKas is given as 2.86. Consider `CC(Oc1ccc(Oc2ccc(Cl)cc2Cl)cc1)C(=O)O` (stereo not shown) [Diclofop], for which the pKas is listed as 3.57.

Consider `C[C@@H](Oc1ccc(Oc2ccc(C(F)(F)F)cn2)cc1)C(=O)O` [Fluazifop-p], for which the pKas was 2.98. With `CC(Oc1ccc(Oc2ncc(C(F)(F)F)cc2Cl)cc1)C(=O)O` (stereo not shown) [Haloxyfop], the pKas is reported as 4.33. As to `CC(C)C1(C)N=C(c2nc3ccccc3cc2C(=O)O)NC1=O` (stereo not shown) [Imazaquin], the pKas is listed as 3.8. For `CCc1cnc(C2=NC(C)(C(C)C)C(=O)N2)c(C(=O)O)c1` (stereo not shown) [Imazethapyr], the pKas was 3.9. As for `N#Cc1cc(I)c(O)c(I)c1` [Ioxynil], the pKas is 3.96. As to `Nc1c(Cl)c(Cl)nc(C(=O)O)c1Cl` [Picloram], the pKas was 2.3. Consider `O=C(O)c1c(Cl)ccc2cc(Cl)cnc12` [Quinclorac], for which the pKas is recorded as 4.34.

For `CCC/C(=N\OCC)C1=C(O)CC(CC(C)SCC)CC1=O` (stereo not shown) [Sethoxydim], the pKas is given as 4.16. Regarding `O=C(O)COc1nc(Cl)c(Cl)cc1Cl` [Triclopyr, 3,5,6-trichloro-2-pyridyloxyacetic acid], the pKas is 2.68.

Regarding Imazamethbenz, the pKas is reported as 2.9.
